Reference: patent US20200131177A1, “PESTICIDALLY ACTIVE HETEROCYCLIC DERIVATIVES WITH SULFUR CONTAINING SUBSTITUENTS” (SYNGENTA PARTICIPATIONS AG, priority 2017, published 2020)

Key:
Type in all cases: in vivo
[1] = system: Bemisia tabaci (Cotton White Fly); experiment: Example B8: Bemisia tabaci, sprayed cotton leaf discs; conditions: foliar, 144 h, application rate of 200 ppm, adult white flies, 6 days after incubation
Experimental: Example B8: Bemisia tabaci (Cotton White Fly)
Cotton leaf discs were placed on agar in 24-well microtiter plates and sprayed with aqueous test solutions prepared from 10′000 ppm DMSO stock solutions. After drying the leaf discs were infested with adult white flies. The samples were checked for mortality 6 days after incubation.

[2] = system: Myzus persicae (Green Peach Aphid); experiment: Example B6: Myzus persicae, roots of pea seedlings in test solution; conditions: 144 h, test rate of 24 ppm, aphid population of mixed ages, 6 days after placing seedlings into test solutions
Experimental: Example B6: Myzus persicae (Green Peach Aphid)
Roots of pea seedlings infested with an aphid population of mixed ages were placed directly into aqueous test solutions prepared from 10′000 DMSO stock solutions. The samples were assessed for mortality 6 days after placing seedlings into test solutions.

[3] = system: Myzus persicae (Green Peach Aphid); experiment: Example B5: Myzus persicae, sprayed sunflower leaf discs; conditions: foliar, 144 h, application rate of 200 ppm, aphid population of mixed ages, 6 days after infestation
Experimental: Example B5: Myzus persicae (Green Peach Aphid)
Sunflower leaf discs were placed onto agar in a 24-well microtiter plate and sprayed with aqueous test solutions prepared from 10′000 ppm DMSO stock solutions. After drying, the leaf discs were infested with an aphid population of mixed ages. The samples were assessed for mortality 6 days after infestation.

[4] = system: Plutella xylostella (Diamond Back Moth); experiment: Example B3: Plutella xylostella, treated artificial diet; conditions: 120 h, application rate of 200 ppm, L2 larvae, 5 days after infestation, read-out: effect in at least one of the two categories (mortality or growth inhibition)
Experimental: Example B3: Plutella xylostella (Diamond Back Moth)
24-well microtiter plates with artificial diet were treated with aqueous test solutions prepared from 10′000 ppm DMSO stock solutions by pipetting. After drying, the plates were infested with L2 larvae (10 to 15 per well). The samples were assessed for mortality and growth inhibition in comparison to untreated samples 5 days after infestation.

[5] = system: Euschistus heros (Neotropical Brown Stink Bug); experiment: Example B9: Euschistus heros, sprayed soybean leaves; conditions: 120 h, application rate of 200 ppm, N2 nymphs, 5 days after infestation, read-out: effect in at least one of the two categories (mortality or growth inhibition)
Experimental: Example B9: Euschistus heros (Neotropical Brown Stink Bug)
Soybean leaves on agar in 24-well microtiter plates were sprayed with aqueous test solutions prepared from 10′000 ppm DMSO stock solutions. After drying the leaves were infested with N2 nymphs. The samples were assessed for mortality and growth inhibition in comparison to untreated samples 5 days after infestation.

[6] = system: Diabrotica balteata (Corn Root Worm); experiment: Example B4: Diabrotica balteata, sprayed maize sprouts; conditions: 96 h, application rate of 200 ppm, L2 larvae, 4 days after infestation, read-out: effect in at least one of the two categories (mortality or growth inhibition)
Experimental: Example B4: Diabrotica balteata (Corn Root Worm)
Maize sprouts placed onto an agar layer in 24-well microtiter plates were treated with aqueous test solutions prepared from 10′000 ppm DMSO stock solutions by spraying. After drying, the plates were infested with L2 larvae (6 to 10 per well). The samples were assessed for mortality and growth inhibition in comparison to untreated samples 4 days after infestation.

[7] = system: Frankliniella occidentalis (Western Flower Thrips); experiment: Example B12: Frankliniella occidentalis, sprayed sunflower leaf discs; conditions: foliar, 168 h, application rate of 200 ppm, population of mixed ages, 7 days after infestation
Experimental: Example B12: Frankliniella occidentalis (Western Flower Thrips)
Sunflower leaf discs were placed on agar in 24-well microtiter plates and sprayed with aqueous test solutions prepared from […] stock solutions. After drying the leaf discs were infested with a Frankliniella population of mixed ages. The samples were assessed for mortality 7 days after infestation.

[8] = system: Spodoptera littoralis (Egyptian Cotton Leaf Worm); experiment: Example B1: Spodoptera littoralis, sprayed cotton leaf discs; conditions: foliar, 72 h, application rate of 200 ppm, L1 larvae, 3 days after infestation, read-out: control (mortality, anti-feeding effect or growth inhibition)
Experimental: Example B1: Spodoptera littoralis (Egyptian Cotton Leaf Worm)
Cotton leaf discs were placed onto agar in 24-well microtiter plates and sprayed with aqueous test solutions prepared from 10′000 ppm DMSO stock solutions. After drying the leaf discs were infested with five L1 larvae. The samples were assessed for mortality, anti-feeding effect, and growth inhibition in comparison to untreated samples 3 days after infestation. Control of Spodoptera littoralis by a test sample is given when at least one of the categories mortality, anti-feedant effect, and growth inhibition is higher than the untreated sample.

[9] = system: Tetranychus urticae (Two-Spotted Spider Mite); experiment: Example B10: Tetranychus urticae, sprayed bean leaf discs; conditions: foliar, 192 h
Experimental: Example B10: Tetranychus urticae (Two-Spotted Spider Mite)
Bean leaf discs on agar in 24-well microtiter plates were sprayed with aqueous test solutions prepared from 10′000 ppm DMSO stock solutions. After drying the leaf discs were infested with a mite population of mixed ages. The samples were assessed for mortality on mixed population (mobile stages) 8 days after infestation.

CCS(=O)(=O)c1cc(C(F)(F)F)cnc1-c1nc2cc(SC(F)F)ncc2n1C [Compound P3, 6-(difluoromethylsulfanyl)-2-[3-ethylsulfonyl-5-(trifluoromethyl)-2-pyridyl]-3-methyl-imidazo[4,5-c]pyridine]
≥ 80%: mortality at 200 ppm [1] | mortality at 24 ppm [2] | mortality at 200 ppm [3] | percent effect (mortality or growth inhibition) at 200 ppm [4] | percent effect (mortality or growth inhibition) at 200 ppm [5] | percent effect (mortality or growth inhibition) at 200 ppm [6] | mortality at 200 ppm [7] | percent control (mortality, anti-feedant effect or growth inhibition) at 200 ppm [8]

CCS(=O)(=O)c1cccnc1-c1nc2cc([S+]([O-])C(F)F)ncc2n1C (stereo not drawn) [Compound P4]
≥ 80%: mortality at 24 ppm [2] | mortality at 200 ppm [3] | percent effect (mortality or growth inhibition) at 200 ppm [5] | percent effect (mortality or growth inhibition) at 200 ppm [6]

CCS(=O)(=O)c1ccc(-n2cncn2)nc1-c1nc2cc([S+]([O-])C(F)F)ncc2n1C (stereo not drawn) [Compound P8, 6-(difluoromethylsulfinyl)-2-[3-ethylsulfonyl-6-(1,2,4-triazol-1-yl)-2-pyridyl]-3-methyl-imidazo[4,5-c]pyridine]
≥ 80%: mortality at 200 ppm [1] | mortality at 24 ppm [2] | mortality at 200 ppm [3] | percent effect (mortality or growth inhibition) at 200 ppm [5] | percent effect (mortality or growth inhibition) at 200 ppm [6]

CCS(=O)(=O)c1cc(OC(C)C)cnc1-c1nc2cc(SC(F)F)ncc2n1C [Compound P12, 6-(difluoromethylsulfanyl)-2-(3-ethylsulfonyl-5-isopropoxy-2-pyridyl)-3-methyl-imidazo[4,5-c]pyridine]
≥ 80%: mortality at 24 ppm [2] | mortality at 200 ppm [3] | percent effect (mortality or growth inhibition) at 200 ppm [4] | percent effect (mortality or growth inhibition) at 200 ppm [5] | percent effect (mortality or growth inhibition) at 200 ppm [6] | percent control (mortality, anti-feedant effect or growth inhibition) at 200 ppm [8]

CCS(=O)(=O)c1cc(C(F)(F)F)cnc1-c1nc2cc([S+]([O-])C(F)F)ncc2n1C (stereo not drawn) [Compound P2, 6-(difluoromethylsulfinyl)-2-[3-ethylsulfonyl-5-(trifluoromethyl)-2-pyridyl]-3-methyl-imidazo[4,5-c]pyridine]
≥ 80%: mortality at 200 ppm [1] | mortality at 24 ppm [2] | mortality at 200 ppm [3] | percent effect (mortality or growth inhibition) at 200 ppm [4] | percent effect (mortality or growth inhibition) at 200 ppm [5] | percent effect (mortality or growth inhibition) at 200 ppm [6] | percent control (mortality, anti-feedant effect or growth inhibition) at 200 ppm [8]

CCS(=O)(=O)c1cccnc1-c1nc2cc(SC(F)F)ncc2n1C [Compound P6, 6-(difluoromethylsulfanyl)-2-(3-ethylsulfonyl-2-pyridyl)-3-methyl-imidazo[4,5-c]pyridine]
≥ 80%: mortality at 24 ppm [2] | mortality at 200 ppm [3] | percent effect (mortality or growth inhibition) at 200 ppm [5] | percent effect (mortality or growth inhibition) at 200 ppm [6]

CCS(=O)(=O)c1ccc(-n2cncn2)nc1-c1nc2cc(S(=O)(=O)C(F)F)ncc2n1C [Compound P7, 6-(difluoromethylsulfonyl)-2-[3-ethylsulfonyl-6-(1,2,4-triazol-1-yl)-2-pyridyl]-3-methyl-imidazo[4,5-c]pyridine]
≥ 80%: mortality at 24 ppm [2] | mortality at 200 ppm [3] | percent effect (mortality or growth inhibition) at 200 ppm [5] | percent effect (mortality or growth inhibition) at 200 ppm [6]

CCS(=O)(=O)c1cc(OC(C)C)cnc1-c1nc2cc([S+]([O-])C(F)F)ncc2n1C (stereo not drawn) [Compound P11, 6-(difluoromethylsulfinyl)-2-(3-ethylsulfonyl-5-isopropoxy-2-pyridyl)-3-methyl-imidazo[4,5-c]pyridine]
≥ 80%: mortality at 24 ppm [2] | mortality at 200 ppm [3] | percent effect (mortality or growth inhibition) at 200 ppm [4] | percent effect (mortality or growth inhibition) at 200 ppm [5] | mortality at 200 ppm [9] | percent control (mortality, anti-feedant effect or growth inhibition) at 200 ppm [8]

CCS(=O)(=O)c1cc(OC(C)C)cnc1-c1nc2cc(S(=O)(=O)C(F)F)ncc2n1C [Compound P10, 6-(difluoromethylsulfonyl)-2-(3-ethylsulfonyl-5-isopropoxy-2-pyridyl)-3-methyl-imidazo[4,5-c]pyridine]
≥ 80%: mortality at 24 ppm [2] | mortality at 200 ppm [3] | percent effect (mortality or growth inhibition) at 200 ppm [4] | percent effect (mortality or growth inhibition) at 200 ppm [5] | mortality at 200 ppm [9] | percent control (mortality, anti-feedant effect or growth inhibition) at 200 ppm [8]

CCS(=O)(=O)c1ccc(-n2cncn2)nc1-c1nc2cc(SC(F)F)ncc2n1C [Compound P9, 6-(difluoromethylsulfanyl)-2-[3-ethylsulfonyl-6-(1,2,4-triazol-1-yl)-2-pyridyl]-3-methyl-imidazo[4,5-c]pyridine]
≥ 80%: mortality at 200 ppm [1] | mortality at 24 ppm [2] | mortality at 200 ppm [3] | percent effect (mortality or growth inhibition) at 200 ppm [5] | percent effect (mortality or growth inhibition) at 200 ppm [6] | percent control (mortality, anti-feedant effect or growth inhibition) at 200 ppm [8]

CCS(=O)(=O)c1cc(C(F)(F)F)cnc1-c1nc2cc(S(=O)(=O)C(F)F)ncc2n1C [Compound P1, 6-(difluoromethylsulfonyl)-2-[3-ethylsulfonyl-5-(trifluoromethyl)-2-pyridyl]-3-methyl-imidazo[4,5-c]pyridine]
≥ 80%: mortality at 200 ppm [1] | mortality at 24 ppm [2] | mortality at 200 ppm [3] | percent effect (mortality or growth inhibition) at 200 ppm [4] | percent effect (mortality or growth inhibition) at 200 ppm [5] | percent effect (mortality or growth inhibition) at 200 ppm [6] | percent control (mortality, anti-feedant effect or growth inhibition) at 200 ppm [8]
